Data: patent publication EP4015040A1, “METHOD FOR TREATING BLOOD DISEASES” (Fundación para la Formación e Investigación Sanitarias de …, priority 2020, dated 2022)

Target: T1, telomerase (Danio rerio, UniProt A2THE9)
T1 sequence (A2THE9 1-1098): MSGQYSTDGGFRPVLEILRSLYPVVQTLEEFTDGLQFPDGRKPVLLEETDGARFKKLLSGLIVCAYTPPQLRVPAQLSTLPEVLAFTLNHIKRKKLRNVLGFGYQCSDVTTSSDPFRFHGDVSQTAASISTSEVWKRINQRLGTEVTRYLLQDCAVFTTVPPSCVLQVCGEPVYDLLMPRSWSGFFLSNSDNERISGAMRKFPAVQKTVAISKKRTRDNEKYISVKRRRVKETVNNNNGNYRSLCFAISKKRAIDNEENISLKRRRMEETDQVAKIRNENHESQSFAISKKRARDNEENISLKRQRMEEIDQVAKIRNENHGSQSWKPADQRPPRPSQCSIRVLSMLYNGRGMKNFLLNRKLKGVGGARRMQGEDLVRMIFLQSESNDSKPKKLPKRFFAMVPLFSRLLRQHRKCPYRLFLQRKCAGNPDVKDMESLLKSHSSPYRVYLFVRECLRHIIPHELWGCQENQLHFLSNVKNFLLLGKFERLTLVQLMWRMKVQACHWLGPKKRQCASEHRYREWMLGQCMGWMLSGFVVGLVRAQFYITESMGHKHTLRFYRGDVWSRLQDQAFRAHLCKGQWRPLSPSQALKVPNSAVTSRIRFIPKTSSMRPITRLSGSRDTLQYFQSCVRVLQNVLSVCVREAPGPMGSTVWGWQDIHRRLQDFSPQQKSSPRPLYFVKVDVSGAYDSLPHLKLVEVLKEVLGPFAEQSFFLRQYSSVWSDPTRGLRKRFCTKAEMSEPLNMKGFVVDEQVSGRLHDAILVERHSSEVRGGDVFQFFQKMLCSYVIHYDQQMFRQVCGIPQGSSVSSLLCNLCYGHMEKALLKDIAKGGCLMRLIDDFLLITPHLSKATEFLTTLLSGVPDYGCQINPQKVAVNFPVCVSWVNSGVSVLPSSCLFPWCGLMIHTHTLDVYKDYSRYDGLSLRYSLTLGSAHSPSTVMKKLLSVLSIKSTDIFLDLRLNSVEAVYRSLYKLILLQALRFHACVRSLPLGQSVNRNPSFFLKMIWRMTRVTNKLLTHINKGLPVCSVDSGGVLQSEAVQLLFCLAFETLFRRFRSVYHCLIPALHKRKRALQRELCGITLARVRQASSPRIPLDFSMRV
Assay: Telomerase activity assay (Q-TRAP) in protein extracts of microinjected larvae
Type: in vivo
Settings: zebrafish; 20 µM microinjected, larvae collected at 48 hpf; read-out: reduction of telomerase activity

inhibition at 20 µM: > 50%
SMILES: C/C(=C\C(=O)Nc1ccccc1C(=O)O)c1ccc2ccccc2c1 [BIBR1532]
